Assay results published in patent US20230048576A1, “COMPOUNDS FOR THE TREATMENT OF NEUROPATHIC PAIN” (City of Hope, priority 2019, published 2023).
≈ marks a conversion by molar mass, not a printed value.

Columns and labels:
[1] = Formulation stability in 20% HPβCD in pH 8.0 buffer (HPLC area %); assay type: physicochemical
[2] = Solubility of purified LR-90 in different vehicles; assay type: physicochemical
Protocol: In order to develop a vehicle formulation for LR-90 for use in humans, 15 different vehicles were tested to measure the solubility of the purified LR-90 (Table 6).

[3] = Pharmacokinetic study following a single oral administration; assay type: in vivo, Sprague-Dawley (SD) rats; details: in 20% HPβCD in pH 8.0 buffer; 50 mg/kg oral gavage; vs salt in water, 4% DMSO in corn oil, Ora-Blend SF
Protocol: Pharmacokinetic studies of four different formulations of LR-90 were investigated. LR-90 either in salt formulation dissolved in water, in 4% DMSO in corn oil, in 20% HPβCD in pH 8.0 buffer, and in Ora-Blend SF was delivered at a dose of 50 mg/kg by oral gavage in Sprague-Dawley (SD) rats. Blood samples were collected at 0 min, 15 min, 30 min, 1 hr, 2 hr, 4 hr, 8 hr, 24 hr and 48 hr post-dosing. LR-90 level was determined in plasma by LC-MS/MS assay.

[4] = Survival of animals during the study; assay type: in vivo, rat
Protocol: (§1) Neuropathic pain was induced by intraperitoneal administration of Taxol at a dose level of 6 mg/kg on study days 0-6 and 12 mg/kg on study days 7-12. Following injection of Taxol animals experienced pain as was assessed using the von Frey test. The development of neuropathic pain was confirmed by measuring mechanical allodynia (Von Frey test) on study day 13 (for inclusion) and on study day 14 (1 hour and 2 hour post dosing) and 24 hour post first dosing.

[5] = Solubility of purified LR-90 in different vehicles; assay type: physicochemical; details: 20% HPβCD in pH 8.0 buffer (w/v); 5 or 10 mg/ml
[6] = Mean group body weight in Taxol model; assay type: in vivo, rat; details: 25 mg/kg PO, Group 6
Protocol: as §1

[7] = 5 mg/ml LR-90 in 20% HPβCD in pH 8.0 buffer
[8] = 10 mg/ml LR-90 in 20% HPβCD in pH 8.0 buffer

CC(C)(Oc1ccc(NC(=O)Nc2ccc(Cc3ccc(NC(=O)Nc4ccc(OC(C)(C)C(=O)O)cc4)c(Cl)c3)cc2Cl)cc1)C(=O)O [LR-90, methylene bis[4,4′-(2-chlorophenylureidophenoxyisobutyric acid)]]
Final Purity (24 hr) (HPLC area) [1, 7]: 99.20% | Initial Purity (HPLC area) [1, 7]: 99.21% | Final Purity (24 hr) (HPLC area) [1, 8]: 99.14% | Initial Purity (HPLC area) [1, 8]: 99.20% | degradation of the compound ([1]; 20% HPβCD solution, at least for 24 hours): no degradation | Solubility ([2]; Media: 10% Kolliphor RH40 in water (W/V)): 1220 µg/mL (≈ 1.72 mM) | Solubility ([2]; Media: 10% Solutol in water (W/V)): 1250 µg/mL (≈ 1.76 mM) | Solubility ([2]; Media: 10% TPGS in water (W/V)): 560 µg/mL (≈ 0.789 mM) | Solubility ([2]; Media: 20% Labsol tn water (W/V)): 1650 µg/mL (≈ 2.33 mM) | Solubility ([2]; Media: 30% Captisol in water (W/V)): 1710 µg/mL (≈ 2.41 mM) | Solubility ([2]; Media: 40% HPβCD in water (W/V)): 3660 µg/mL (≈ 5.16 mM) | Solubility ([2]; Media: DMA): >531000 µg/mL | Solubility ([2]; Media: DMSO): >258500 µg/mL | Solubility ([2]; Media: EtOH): >4600 µg/mL | Solubility ([2]; Media: PEG300): >16790 µg/mL | Solubility ([2]; Media: PEG400): >10100 µg/mL | Solubility ([2]; Media: PG): >2270 µg/mL | Solubility ([2]; Media: pH 6.8): 1670 µg/mL (≈ 2.35 mM) | Solubility ([2]; Media: pH 8): 7120 µg/mL (≈ 10 mM) | pharmacokinetics (plasma LR-90 level) compared with the three other formulations [3]: superior | Survived Animals in % ([4]; 25 mg/kg PO, Group 6, Study Day 13): 100% | Survived Animals in % ([4]; 25 mg/kg PO, Group 6, Study Day 14): 100% | Survived Animals in % ([4]; 25 mg/kg PO, Group 6, Study Day 15): 100% | Survived Animals in % ([4]; 25 mg/kg PO, Group 6, Study Day 16): 100% | Survived Animals in % ([4]; 25 mg/kg PO, Group 6, Study Day 17): 100% | Survived Animals in % ([4]; 25 mg/kg PO, Group 6, Study Day 18): 100% | Survived Animals in % ([4]; 25 mg/kg PO, Group 6, Study Day 19): 100% | Survived Animals in % ([4]; 25 mg/kg PO, Group 6, Study Day 20): 100% | Survived Animals in % ([4]; 25 mg/kg PO, Group 6, Study Day 21): 100% | Survived Animals in % ([4]; 25 mg/kg PO, Group 6, Study Day 22): 100% | Survived Animals in % ([4]; 25 mg/kg PO, Group 6, Study Day 23): 100% | Survived Animals in % ([4]; 25 mg/kg PO, Group 6, Study Day 24): 100% | Survived Animals in % ([4]; 25 mg/kg PO, Group 6, Study Day 25): 75% | Survived Animals in % ([4]; 25 mg/kg PO, Group 6, Study Day 28): 38% | Survived Animals in % ([4]; 50 mg/kg PO, Group 5, Study Day 13): 100% | Survived Animals in % ([4]; 50 mg/kg PO, Group 5, Study Day 14): 100% | Survived Animals in % ([4]; 50 mg/kg PO, Group 5, Study Day 15): 100% | Survived Animals in % ([4]; 50 mg/kg PO, Group 5, Study Day 16): 100% | Survived Animals in % ([4]; 50 mg/kg PO, Group 5, Study Day 17): 100% | Survived Animals in % ([4]; 50 mg/kg PO, Group 5, Study Day 18): 100% | Survived Animals in % ([4]; 50 mg/kg PO, Group 5, Study Day 19): 100% | Survived Animals in % ([4]; 50 mg/kg PO, Group 5, Study Day 20): 100% | Survived Animals in % ([4]; 50 mg/kg PO, Group 5, Study Day 21): 100% | Survived Animals in % ([4]; 50 mg/kg PO, Group 5, Study Day 22): 88% | Survived Animals in % ([4]; 50 mg/kg PO, Group 5, Study Day 23): 88% | Survived Animals in % ([4]; 50 mg/kg PO, Group 5, Study Day 24): 50% | Survived Animals in % ([4]; 50 mg/kg PO, Group 5, Study Day 25): 50% | Survived Animals in % ([4]; 50 mg/kg PO, Group 5, Study Day 28): 38% | Survived Animals in % ([4]; 100 mg/kg PO, Group 4, Study Day 13): 100% | Survived Animals in % ([4]; 100 mg/kg PO, Group 4, Study Day 14): 100% | Survived Animals in % ([4]; 100 mg/kg PO, Group 4, Study Day 15): 100% | Survived Animals in % ([4]; 100 mg/kg PO, Group 4, Study Day 16): 100% | Survived Animals in % ([4]; 100 mg/kg PO, Group 4, Study Day 17): 100% | Survived Animals in % ([4]; 100 mg/kg PO, Group 4, Study Day 18): 100% | Survived Animals in % ([4]; 100 mg/kg PO, Group 4, Study Day 19): 100% | Survived Animals in % ([4]; 100 mg/kg PO, Group 4, Study Day 20): 100% | Survived Animals in % ([4]; 100 mg/kg PO, Group 4, Study Day 21): 100% | Survived Animals in % ([4]; 100 mg/kg PO, Group 4, Study Day 22): 100% | Survived Animals in % ([4]; 100 mg/kg PO, Group 4, Study Day 23): 88% | Survived Animals in % ([4]; 100 mg/kg PO, Group 4, Study Day 24): 63% | Survived Animals in % ([4]; 100 mg/kg PO, Group 4, Study Day 25): 38% | Survived Animals in % ([4]; 100 mg/kg PO, Group 4, Study Day 28): 38% | dissolution to a solution of the drug target concentration [5]: could be dissolved | Mean group body weight ([6]; Baseline): 223.50 g | Mean group body weight (% from baseline) ([6]; Baseline): 100.00% | Mean group body weight ([6]; Day 1): 235.00 g | Mean group body weight (% from baseline) ([6]; Day 1): 105.16%
